Data on 14 compounds can be found in ChEMBL document CHEMBL1140529, “Androstene-3,5-dienes as ER-beta selective SERMs” (Bioorg Med Chem Lett, 2007).

Assay [1] addresses T1, Estrogen receptor beta (Homo sapiens, UniProt Q92731).
Description: Binding affinity at human recombinant ERbeta
Assay [2] addresses T1, Estrogen receptor beta. Type of assay: functional, cell-based, HEK293.
Description: Agonist activity at ERbeta expressed in HEK293 cells by transactivation assay
In another assay the target is T2, Androgen receptor (Homo sapiens, UniProt P10275).
T2 sequence (P10275 whole entry): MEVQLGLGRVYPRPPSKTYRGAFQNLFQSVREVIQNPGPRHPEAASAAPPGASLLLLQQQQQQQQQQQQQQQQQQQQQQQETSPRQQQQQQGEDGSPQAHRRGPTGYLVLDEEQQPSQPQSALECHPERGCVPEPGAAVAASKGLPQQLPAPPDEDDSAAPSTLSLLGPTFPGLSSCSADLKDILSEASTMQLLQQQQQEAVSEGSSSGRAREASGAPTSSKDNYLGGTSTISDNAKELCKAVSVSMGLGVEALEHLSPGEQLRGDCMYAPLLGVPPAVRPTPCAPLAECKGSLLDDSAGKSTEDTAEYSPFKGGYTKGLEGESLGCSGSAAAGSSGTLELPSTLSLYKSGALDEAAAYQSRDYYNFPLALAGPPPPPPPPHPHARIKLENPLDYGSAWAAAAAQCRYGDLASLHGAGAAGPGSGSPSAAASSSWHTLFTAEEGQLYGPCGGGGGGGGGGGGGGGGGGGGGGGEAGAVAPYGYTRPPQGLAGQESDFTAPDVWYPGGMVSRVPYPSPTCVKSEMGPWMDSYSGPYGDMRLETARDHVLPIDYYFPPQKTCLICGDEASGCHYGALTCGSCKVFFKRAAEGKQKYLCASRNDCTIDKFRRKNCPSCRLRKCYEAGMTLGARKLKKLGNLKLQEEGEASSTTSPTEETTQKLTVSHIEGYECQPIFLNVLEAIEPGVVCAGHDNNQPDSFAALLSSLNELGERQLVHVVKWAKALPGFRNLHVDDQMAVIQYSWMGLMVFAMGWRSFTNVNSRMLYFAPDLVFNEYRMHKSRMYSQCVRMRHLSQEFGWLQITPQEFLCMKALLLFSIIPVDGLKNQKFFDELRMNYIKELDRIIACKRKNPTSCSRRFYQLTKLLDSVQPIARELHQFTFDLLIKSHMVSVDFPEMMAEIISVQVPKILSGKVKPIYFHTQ

Assay [3] deals with T3, Estrogen receptor (Homo sapiens, UniProt P03372).
T3 sequence (P03372 whole entry): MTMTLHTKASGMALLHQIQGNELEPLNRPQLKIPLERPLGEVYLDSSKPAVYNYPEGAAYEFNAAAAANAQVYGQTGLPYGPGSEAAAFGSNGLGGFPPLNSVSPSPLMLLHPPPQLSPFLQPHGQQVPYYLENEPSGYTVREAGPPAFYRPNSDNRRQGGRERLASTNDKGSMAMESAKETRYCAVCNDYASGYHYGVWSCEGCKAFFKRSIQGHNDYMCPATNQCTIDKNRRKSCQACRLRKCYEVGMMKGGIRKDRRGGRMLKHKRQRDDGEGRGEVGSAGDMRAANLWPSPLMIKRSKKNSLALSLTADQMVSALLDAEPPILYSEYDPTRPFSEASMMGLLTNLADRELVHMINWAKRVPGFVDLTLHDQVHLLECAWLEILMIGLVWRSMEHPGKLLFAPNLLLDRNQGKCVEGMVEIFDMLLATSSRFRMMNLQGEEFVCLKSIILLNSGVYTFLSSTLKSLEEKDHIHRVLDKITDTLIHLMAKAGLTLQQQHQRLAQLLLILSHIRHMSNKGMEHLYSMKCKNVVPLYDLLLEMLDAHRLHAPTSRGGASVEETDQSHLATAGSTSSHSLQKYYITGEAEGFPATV
Description: Binding affinity at human recombinant ERalpha

Assay [4] concerns the target T3, Estrogen receptor. It is filed as functional, cell-based, HEK293.
Description: Agonist activity at ERalpha expressed in HEK293 cells by transactivation assay

T1 sequence (Q92731 whole entry): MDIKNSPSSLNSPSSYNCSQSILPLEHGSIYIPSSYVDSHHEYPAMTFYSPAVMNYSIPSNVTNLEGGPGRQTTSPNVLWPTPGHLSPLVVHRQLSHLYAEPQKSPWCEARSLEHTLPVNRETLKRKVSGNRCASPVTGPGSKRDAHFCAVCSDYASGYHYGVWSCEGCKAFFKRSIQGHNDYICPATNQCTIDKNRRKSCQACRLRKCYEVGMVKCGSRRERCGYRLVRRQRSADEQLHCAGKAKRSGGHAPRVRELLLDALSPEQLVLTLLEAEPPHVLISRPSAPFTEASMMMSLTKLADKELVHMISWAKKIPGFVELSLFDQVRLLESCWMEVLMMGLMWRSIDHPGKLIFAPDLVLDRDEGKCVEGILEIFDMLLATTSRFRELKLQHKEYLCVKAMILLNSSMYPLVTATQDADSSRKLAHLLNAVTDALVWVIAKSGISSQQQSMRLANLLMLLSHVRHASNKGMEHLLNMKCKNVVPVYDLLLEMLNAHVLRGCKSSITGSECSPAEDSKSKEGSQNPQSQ

For orientation: IC50 means the concentration that inhibits the measured activity by half. A low value points to greater potency in that assay. As usually defined, the EC50 is the concentration at which the effect is half-maximal. A higher EC50 goes with weaker potency. Take `C=C1C=C2CC[C@H]3[C@@H]4CC[C@H](O)[C@@]4(C)CC[C@@H]3[C@@]2(C)CC1`: the IC50 on Estrogen receptor beta [1] was 34 nM; on Androgen receptor, 40 nM. The compound also had an EC50 on Estrogen receptor beta [2] of 210 nM.

For the compound `C=C[C@]12CCC(CC)=CC1=CC[C@H]1[C@@H]3CC[C@H](O)[C@@]3(C)CC[C@@H]12`, the IC50 amounted to 3110 nM on Estrogen receptor [3], 115 nM at Estrogen receptor beta [1] and 500 nM against Androgen receptor. Besides, the EC50 at Estrogen receptor [4] was above 1000 nM; on Estrogen receptor beta [2] it was 565 nM.

In the case of `C=C[C@]12CC[C@H](O)CC1=CC[C@@H]1[C@@H]2CC[C@@]2(C)[C@H]1CC[C@]2(C)O`, on Estrogen receptor [3], the IC50 was found to be 1050 nM. Besides, the results for the EC50 on Estrogen receptor [4] and at Estrogen receptor beta [2] were above 1000 nM and 190 nM, respectively.

In the case of `CC1=CC2=CC[C@H]3[C@@H]4CC[C@H](O)[C@@]4(C)CC[C@@H]3[C@@]2(C)CC1`, the half-inhibitory concentration (IC50) came out at 9.4 nM on Estrogen receptor beta [1] and 2250 nM against Androgen receptor. This compound showed an EC50 on Estrogen receptor beta [2] of 220 nM.

Turning to `C=C[C@]12CC[C@@](C)(O)CC1=CC[C@H]1[C@@H]3CC[C@H](O)[C@@]3(C)CC[C@@H]12`, the IC50 against Estrogen receptor [3] was above 10000 nM; at Estrogen receptor beta [1], 2490 nM; against Androgen receptor, 2610 nM. The EC50 at Estrogen receptor [4] and at Estrogen receptor beta [2] was above 1000 nM throughout.

In the case of `C=C[C@]12CC[C@](C)(O)CC1=CC[C@H]1[C@@H]3CC[C@H](O)[C@@]3(C)CC[C@@H]12`, the half-maximal inhibitory concentration (IC50) worked out at 5300 nM against Estrogen receptor [3], 255 nM on Estrogen receptor beta [1] and 842 nM against Androgen receptor. Moreover, the EC50 is above 1000 nM on Estrogen receptor [4] and 240 nM at Estrogen receptor beta [2].

With `C=C[C@]12CCC(C)=CC1=CC[C@H]1[C@@H]3CC[C@H](O)[C@@]3(C)CC[C@@H]12`, the IC50 on Estrogen receptor [3] was determined as 1440 nM; against Estrogen receptor beta [1], 9 nM; against Androgen receptor, 560 nM. In addition, the EC50 at Estrogen receptor [4] is above 1000 nM; on Estrogen receptor beta [2], 69 nM.

Regarding `C=C[C@]12CCC(C)=CC1=CC[C@@H]1[C@@H]2CC[C@@]2(C)[C@H]1CC[C@]2(C)O`, the IC50 was found to be 4380 nM against Estrogen receptor [3], 53 nM against Estrogen receptor beta [1] and 520 nM at Androgen receptor. The EC50 at Estrogen receptor [4] was above 1000 nM; on Estrogen receptor beta [2], 480 nM.

`C=C[C@]12CCC(c3ccccc3)=CC1=CC[C@H]1[C@@H]3CC[C@H](O)[C@@]3(C)CC[C@@H]12`: the IC50 was above 10000 nM on Estrogen receptor [3], 1760 nM on Estrogen receptor beta [1] and 3160 nM at Androgen receptor. Besides, the EC50 on Estrogen receptor [4] and on Estrogen receptor beta [2] was above 1000 nM each time.

For `C=C[C@]12CCC(=C)C=C1CC[C@H]1[C@@H]3CC[C@H](O)[C@@]3(C)CC[C@@H]12`, the figures for the IC50 on Estrogen receptor [3], against Estrogen receptor beta [1] and against Androgen receptor were above 10000 nM, 120 nM and 330 nM, respectively. In addition, the EC50 at Estrogen receptor [4] worked out at 430 nM; on Estrogen receptor beta [2], 230 nM.

In the case of `C=C[C@]12CCC(Cl)=CC1=CC[C@H]1[C@@H]3CC[C@H](O)[C@@]3(C)CC[C@@H]12`, the values for the IC50 at Estrogen receptor [3] and on Estrogen receptor beta [1] were 5740 nM and 64 nM, respectively. In addition, the EC50 was found to be 820 nM at Estrogen receptor [4] and 170 nM on Estrogen receptor beta [2].

As to `C#CC1(O)CC[C@H]2[C@@H]3CC=C4C=C(C)CC[C@]4(C=C)[C@H]3CC[C@@]21C` (single isomer, unassigned), the results for the IC50 against Estrogen receptor [3], against Estrogen receptor beta [1] and against Androgen receptor were 1850 nM, 72 nM and 1620 nM, respectively. Besides, the EC50 at Estrogen receptor [4] amounted to 490 nM; at Estrogen receptor beta [2] it was 31 nM.

As to `C#CC1(O)CC[C@H]2[C@@H]3CC=C4C[C@@H](O)CC[C@]4(C=C)[C@H]3CC[C@@]21C` (single isomer, unassigned), on Estrogen receptor [3], inhibition was half-maximal at 150 nM (IC50). At Estrogen receptor [4], this compound showed a concentration giving a half-maximal response (EC50) of 130 nM.

On Estrogen receptor beta [1], `C[C@]12CC[C@H]3[C@@H](CCC4=CC(=O)CC[C@@]43C)[C@@H]1CC[C@@H]2O` [TESTOSTERONE] came in with an IC50 above 10000 nM.
